Experimental data taken from PMC3255569 (Tuberculosis (Edinburgh, Scotland), 2009).
Where a name gives a salt, the structure may show the parent alone.

Key:
M. tuberculosis H37Rv [1] = conditions: cited from earlier work
M. tuberculosis H37Rv [2] = assay type: cell-based; conditions: Mycobacterium tuberculosis; for MIC: read-out: approximate MIC of control drug
M. tuberculosis H37Rv [3] = assay: M. tuberculosis H37Rv single-dose primary screen; assay type: cell-based, Mycobacterium tuberculosis; conditions: 10 μg/mL

## O=C1C(O)=C([C@H]2CC[C@H](c3ccc(Cl)cc3)CC2)C(=O)c2ccccc21 [Atovaquone]
M. tuberculosis H37Rv [1]; Prestwick Library data
  activity against M. tuberculosis (in words): modest activity

## NCC[C@H](O)C(=O)N[C@@H]1C[C@H](N)[C@@H](O[C@H]2O[C@H](CN)[C@@H](O)[C@H](O)[C@H]2O)[C@H](O)[C@H]1O[C@H]1O[C@H](CO)[C@@H](O)[C@H](N)[C@H]1O [amikacin, Amikacin sulfate]
M. tuberculosis H37Rv [2]
  MIC: ~0.13 µg/mL
M. tuberculosis H37Rv [2]; run over the course of a five month period
  IC50: 0.09 ± 0.02 µg/mL

## Cc1cccc(Nc2nc(-c3ccccc3)cs2)n1 [deaza analog of 1a, 4-phenyl-[2-(6-methyl-2-pyridyl)amino]thiazole]
M. tuberculosis H37Rv [3]
  % Inhibition, single-dose screen: 22%

## CC[C@@H](CO)NCCN[C@@H](CC)CO [ethambutol]
M. tuberculosis H37Rv [2]
  MIC: ~0.5 µg/mL

## CCc1cc(C(N)=S)ccn1 [ethionamide, 2-ethylthioisonicotinamide]
M. tuberculosis H37Rv [1]; in the TAACF screens
  TB IC90: > 100 µg/mL
